Laboratory results published in patent US20090042883A1, “ANTITUMOR AGENT” (KYOWA HAKKOKOGYO CO., priority 2005, published 2009).

Assays:
Type in all cases: cell-based
[1] = system: human mammary cancer BT-474 cells; test: Growth inhibition test on human mammary cancer BT-474 cells (WST-1, % viability); settings: test compound 10 μmol/L, cells without test compound = 100%
Protocol: (§1) Four thousand cells of human mammary cancer BT-474 were inoculated into each well of a 96-well microplate (manufactured by Nunc Corp.), and using Dulbecco's Modified Eagle's Medium (DMEM) (culture medium) containing 10% FCS, preculturing was performed in a 5% carbon dioxide incubator at 37° C. for 24 hours. A DMSO solution of each test compound prepared in a concentration of 10 mmol/L was diluted with the culture medium to a final concentration of 10 μmol/L, and the diluted solution was added to each well. The individual wells were further cultured in the 5% carbon dioxide incubator at 37° C. for 72 hours. After completion of the culturing, 10 μL of WST-1 labeled mixture (manufactured by Roche Diagnostic Corp.) was added to each well, and culturing was performed in the 5% carbon dioxide incubator at 37° C. for 2 hours. Using a microplate spectrophotometer (SpectraMax 340PC384; manufactured by Nihon Molecular Devices), the absorbance of each well was measured at 450 nm and 655 nm. The value obtained by subtracting the absorbance at 450 nm from the absorbance at 655 nm (absorbance difference) was calculated for each well. The value for cells not incorporated with a test compound was designated as 100%, and the value at a well not containing cells was designated as 0%. By comparing these values with the absorbance difference obtained at the well in which each test compound was added, the cell viability (% viability) after treatment with the test compound was calculated.

[2] = system: human acute myelocytic leukemia MV4; 11 cells; test: Growth inhibition test on human acute myelocytic leukemia MV4; 11 cells (WST-1, % viability); settings: test compound 10 μmol/L, cells without test compound = 100%
Protocol: as §1, with “Ten thousand” for “Four thousand”, “human acute myelocytic leukemia MV4; 11” for “human mammary cancer BT-474”, “using IMDM medium” for “using Dulbecco's Modified Eagle's Medium (DMEM)”, “for 1 hour.” for “for 2 hours.”

[3] = system: human lung cancer NCI-H596 cells; test: Growth inhibition test on human lung cancer NCI-H596 cells (WST-1, % viability); settings: test compound 10 μmol/L, cells without test compound = 100%
Protocol: as §1, with “lung” for “mammary”, “NCI-H596” for “BT-474”, “RPMI1640 medium” for “Dulbecco's Modified Eagle's Medium (DMEM)”, “(Model 550;” for “(SpectraMax 340PC384;”, “Bio-Rad),” for “Nihon Molecular Devices),”

[4] = system: human T-cell lymphoma Karpas-299 cells; test: Growth inhibition test on human T-cell lymphoma Karpas-299 cells (WST-1, % viability); settings: test compound 10 μmol/L, 72 hours, cells without test compound = 100%
Protocol: as §1, with “Five” for “Four”, “T-cell lymphoma Karpas-299” for “mammary cancer BT-474”, “RPMI medium” for “Dulbecco's Modified Eagle's Medium (DMEM)”, “5” for “24”

Compound	Viability of tumor cells (% viability), Human mammary cancer BT-474 cells [1] [%]	Viability of tumor cells (% viability), Human acute myelocytic leukemia MV4; 11 cells [2] [%]	Viability of tumor cells (% viability), Human lung cancer NCI-H596 cells [3] [%]	Viability of tumor cells (% viability), Human T-cell lymphoma Karpas-299 cells [4] [%]
CCc1c(O)cc(O)c(C(=O)c2ccc(OC)cc2)c1CC(=O)N(CCO)CCO [Compound 13]	12	0	35	27
CCc1c(O)cc(O)c(C(=O)c2ccc(OC)cc2)c1CC(=O)N(C)Cc1cccnc1 [Compound 16]	12	0	19	13
CCc1c(O)cc(O)c(C(=O)c2ccc(OC)cc2)c1CC(=O)N1CCN(c2ccccc2C#N)CC1 [Compound 17]	10	0	16	16
CCc1c(O)cc(O)c(C(=O)c2ccc(OC)cc2)c1CC(=O)N1CCN(c2ncccn2)CC1 [Compound 32]	13	0	15	15
CCc1c(O)cc(O)c(C(=O)c2ccc(OC)cc2)c1CC(=O)N(CCO)CCOC [Compound 33]	13	0	20	14
CCc1c(O)cc(O)c(C(=O)c2ccc(OC)cc2)c1CC(=O)N1CCc2cc(OC)c(OC)cc2C1 [Compound 38]	13	0	15	14
CCc1c(O)cc(O)c(C(=O)c2ccc(OC)c(OC)c2)c1CC(=O)N1CCN(c2ccccc2)CC1 [Compound 41]	14	0	12	19
CCc1c(O)cc(O)c(C(=O)c2ccc(OC)c(OC)c2)c1CC(=O)N(CCO)CCOC [Compound 56]	13	0	20	14
CCc1c(O)cc(O)c(C(=O)c2ccc(OC)cc2)c1CC(=O)N1CCC(CO)CC1 [Compound 61]	12	0	25	13
CCc1c(O)cc(O)c(C(=O)c2ccc(OC)cc2)c1CC(=O)N(CCO)Cc1ccco1 [Compound 69]	13	0	15	14
CCc1c(O)cc(O)c(C(=O)c2ccc(OC(F)(F)F)cc2)c1CC(=O)N(CCO)CCOC [Compound 88]	13	0	14	16
CCc1c(O)cc(O)c(C(=O)c2ccc(OC(F)F)cc2)c1CC(=O)N(CCO)CCOC [Compound 91]	13	0	14	16
CCc1c(O)cc(O)c(C(=O)c2ccc(SC)cc2)c1CC(=O)N(CCO)CCOC [Compound 95]	13	0	14	15
CCc1c(O)cc(O)c(C(=O)c2ccc(O)c(OC)c2)c1CC(=O)N(CCOC)CCOC [Compound 106]	12	0	12	13
CCc1c(O)cc(O)c(C(=O)c2ccc(S(C)(=O)=O)cc2)c1CC(=O)N(CCOC)CCOC [Compound 107]	13	0	16	14
CCOc1ccc(C(=O)c2c(O)cc(O)c(CC)c2CC(=O)N(CCO)CCOC)cc1 [Compound 122]	12	0	15	12
CCc1c(O)cc(O)c(C(=O)c2ccc(OC(C)C)cc2)c1CC(=O)N(CCO)CCOC [Compound 124]	13	0	15	14
CCc1c(O)cc(O)c(C(=O)c2ccc(OCCN3CCOCC3)c(OC)c2)c1CC(=O)N(CCOC)CCOC [Compound 125]	14	0	17	15
CCc1c(O)cc(O)c(C(=O)c2ccc(OC(C)C)cc2)c1CC(=O)N(CCOC)CCN1CCOCC1 [Compound 134]	13	0	17	16
